These results are taken from publication PMC7468908 (Nutrients, 2020).

Like-named read-outs stand apart in the source and are kept apart here.

Series [1] deals with T1, OATP1B1 (Homo sapiens, UniProt Q9Y6L6).
T1 construct: expressed in transfected cells; host or cells: A431
T1 sequence (Q9Y6L6 1-691): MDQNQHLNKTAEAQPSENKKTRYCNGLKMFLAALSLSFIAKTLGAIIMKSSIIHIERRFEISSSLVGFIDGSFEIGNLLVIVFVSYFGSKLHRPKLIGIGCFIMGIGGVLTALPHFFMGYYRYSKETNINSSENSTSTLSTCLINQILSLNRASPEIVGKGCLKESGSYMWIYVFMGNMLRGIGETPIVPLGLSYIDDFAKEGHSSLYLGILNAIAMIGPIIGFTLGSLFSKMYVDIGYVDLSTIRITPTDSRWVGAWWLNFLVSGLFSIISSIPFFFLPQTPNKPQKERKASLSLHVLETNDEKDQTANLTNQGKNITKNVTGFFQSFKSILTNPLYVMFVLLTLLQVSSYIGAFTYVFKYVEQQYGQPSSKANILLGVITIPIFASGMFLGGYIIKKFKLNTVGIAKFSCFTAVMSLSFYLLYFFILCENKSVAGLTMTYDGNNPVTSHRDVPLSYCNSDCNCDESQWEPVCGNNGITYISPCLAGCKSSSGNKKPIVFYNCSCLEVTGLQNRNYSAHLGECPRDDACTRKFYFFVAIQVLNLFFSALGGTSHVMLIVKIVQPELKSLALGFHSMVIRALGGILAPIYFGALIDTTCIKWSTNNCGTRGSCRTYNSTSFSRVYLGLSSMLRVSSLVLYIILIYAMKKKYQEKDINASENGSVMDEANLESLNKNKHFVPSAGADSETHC
Nature of the series: OATP1B1-mediated pyranine uptake in A431 cells overexpressing OATP1B1. It is filed as cell-based. The method, then:
A431 cells overexpressing human OATPs, 1A2 (BC042452, HsCD00333163), 1B1 (Gene ID: AB026257), 1B3 (BC141525, HsCD00348132) or 2B1 (BC041095.1, HsCD00378878), or their mock transfected controls, were generated as previously described. Cells were cultured in Dulbecco’s Modified Eagle Medium (DMEM; Thermo Fischer Scientific, Waltham, MA, USA) supplemented with 10% fetal bovine serum, 2 mM L-glutamine, 100 units/mL penicillin and 100 µg/mL streptomycin, at 37 °C with 5% CO2.
The interaction between flavonoids and OATPs was investigated in an indirect assay employing the fluorescent dye substrates, pyranine and sulforhodamine 101 [51, 52]. Briefly, A431 cell overexpressing OATPs, 1A2, 1B1, 1B3 or 2B1, or their mock transfected controls, were seeded on 96-well plates in a density of 8x10^4 cells/well in 200 μL DMEM one day prior to the transport measurements. […] The reaction was started by the addition of 50 μL uptake buffer containing pyranine in a final concentration of 10 μM (OATP1B1) or 20 μM (OATP1B3 and OATP2B1), or 0.5 μM sulforhodamine 101 (OATP1A2). Thereafter, cells were incubated at 37°C for 15 min (OATP1B1 and OATP2B1), 10 min (OATP1A2), or 30 min (OATP1B3). The reactions were stopped by removing the supernatants, then the cells were washed three times with ice-cold PBS. Fluorescence (in 200 μL PBS/well) was determined employing an Enspire plate reader (Perkin Elmer, Waltham, MA) ex/em: 403/517 nm (pyranine) or 586/605 nm (sulforhodamine 101). OATP-dependent transport was calculated by extracting fluorescence measured in mock transfected cells. Transport activity was calculated based on the fluorescence signal in the absence (100%) of flavonoids. Experiments were repeated at least in three biological replicates. IC50 values were calculated by Hill1 fit, using the Origin Pro8.6 software ([…]).

Series [2] has as its target T2, CYP3A4 (Homo sapiens, UniProt P08684).
T2 construct: purchased Sigma-Aldrich
Nature of the series: CYP3A4-catalyzed testosterone hydroxylation (CypExpress kit, HPLC). In kind it is biochemical. The conditions noted are these: for concentration inducing statistically significant (p < 0.01) decrease in metabolite formation, CYP3A4: substrate 5 µM testosterone. The protocol: Inhibition of CYP2C19 [47], 3A4 [48], and 2D6 [49] by Q and its conjugates was tested based on our previously reported methods, without modifications.
S-mephenytoin and 4-hydroxymephenytoin (CYP2C19 assay), testosterone and 6β-hydroxytestosterone (CYP3A4 assay), as well as dextromethorphan and dextrorphan (CYP2D6 assay) were quantified using the previously described methods, with minor modifications.
In the CYP3A4 assay, samples were driven through a guard column (Security Guard™ Catridge C18 4.0 × 3.0 mm; Phenomenex, Torrance, CA, USA) linked to an analytical column (Kinetex C18 150 × 4.6 mm; 5 µm; Phenomenex, Torrance, CA, USA), with a 1.2 mL/min flow rate, at room temperature. The mobile phase contained methanol (VWR, Budapest, Hungary), water, and acetic acid (53:46:1 v/v%). After the isocratic elution, testosterone and 6β-hydroxytestosterone were detected at 240 nm.

Where [3] appears, read: 10 μM pyranine, 15 min, A431-OATP1B1 cells, read-out: IC50 for OATP1B1.
[4] abbreviates: testosterone hydroxylation, substrate 5 µM, read-out: IC50 for CYP3A4.

T2 sequence (P08684 whole entry): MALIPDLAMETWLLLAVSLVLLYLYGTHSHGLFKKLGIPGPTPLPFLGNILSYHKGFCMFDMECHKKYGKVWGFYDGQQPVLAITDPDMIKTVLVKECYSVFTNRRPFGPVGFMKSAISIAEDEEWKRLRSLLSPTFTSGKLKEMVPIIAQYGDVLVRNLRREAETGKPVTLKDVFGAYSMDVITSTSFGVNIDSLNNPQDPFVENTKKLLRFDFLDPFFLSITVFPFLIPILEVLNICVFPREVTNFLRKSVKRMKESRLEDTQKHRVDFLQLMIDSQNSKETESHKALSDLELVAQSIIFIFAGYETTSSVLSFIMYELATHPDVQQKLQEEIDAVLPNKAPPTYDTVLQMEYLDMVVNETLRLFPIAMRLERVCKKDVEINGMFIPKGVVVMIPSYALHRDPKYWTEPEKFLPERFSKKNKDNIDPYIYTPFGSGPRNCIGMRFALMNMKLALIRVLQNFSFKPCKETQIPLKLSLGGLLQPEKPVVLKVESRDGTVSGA

`COc1cc(-c2oc3cc(O)cc(O)c3c(=O)c2OC2OC(C(=O)O)C(O)C(O)C2O)ccc1O` (stereo not shown) [I3G, isorhamnetin-3-glucuronide]: the “concentration causing statistically significant (p < 0.01) inhibition, OATP1B1” value in series [1] (10 μM pyranine, 15 min) came to 1.6 µM. Also, the IC50 (commonly the concentration at which inhibition is half-maximal) was 5.63 µM in series [1] (setting [3]) and above 30 µM in series [2] (setting [4]). Moreover, the “concentration inducing statistically significant (p < 0.01) decrease in metabolite formation, CYP3A4” value in series [2] was found to be 10 µM.

`COc1cc(-c2oc3cc(O)cc(O)c3c(=O)c2O)ccc1O` [IR, isorhamnetin]: half-maximal inhibition in series [1] (IC50) required 3.12 µM. Also, the “concentration causing statistically significant (p < 0.01) inhibition, OATP1B1” value in series [1] (10 μM pyranine, 15 min) is 3.1 µM. Further, in series [2], the IC50 was above 30 µM and the “concentration inducing statistically significant (p < 0.01) decrease in metabolite formation, CYP3A4” value was 10 µM.

On to `O=C(O)C1OC(Oc2c(-c3ccc(O)c(O)c3)oc3cc(O)cc(O)c3c2=O)C(O)C(O)C1O` (stereo not shown) [Q3G, quercetin-3-glucuronide], for which, in series [1] (10 μM pyranine, 15 min), the “concentration causing statistically significant (p < 0.01) inhibition, OATP1B1” value worked out at 1.6 µM. Also, the concentration for half-maximal inhibition (IC50) in series [1] (setting [3]) was 4.05 µM; in series [2] (setting [4]) it was above 30 µM. The “concentration inducing statistically significant (p < 0.01) decrease in metabolite formation, CYP3A4” value in series [2] came out at 20 µM.

As for `O=c1c(O)c(-c2ccc(O)c(OS(=O)(=O)O)c2)oc2cc(O)cc(O)c12` [Q3′S, quercetin-3′-sulfate], the “concentration causing statistically significant (p < 0.01) inhibition, OATP1B1” value in series [1] (10 μM pyranine, 15 min) came to 0.3 µM. Moreover, the figures for the half-maximal inhibitory concentration (IC50) in series [1] (setting [3]) and in series [2] (setting [4]) were 0.33 µM and above 30 µM, respectively. Also, the “concentration inducing statistically significant (p < 0.01) decrease in metabolite formation, CYP3A4” value in series [2] was 10 µM.

As for `O=c1c(O)c(-c2ccc(O)c(O)c2)oc2cc(O)cc(O)c12` [Q, quercetin], the “concentration causing statistically significant (p < 0.01) inhibition, OATP1B1” value in series [1] (10 μM pyranine, 15 min) was 1.3 µM. For the same molecule, the half-inhibitory concentration (IC50) in series [1] (setting [3]) amounted to 1.55 µM. The “concentration inducing statistically significant (p < 0.01) decrease in metabolite formation, CYP3A4” value in series [2] was 5 µM.
